{"source": "patent US20250042885A1", "about": "“SOLID STATE FORMS OF LOTILANER AND PROCESS FOR PREPARATION THEREOF” (TEVA PHARMACEUTICALS INTERNATIONAL GMBH, priority 2021, published 2025)", "assay_type_in_all_cases": "physicochemical", "key": {"[1]": {"experiment": "Grinding experiments (strong grinding, solvent drop grinding; XRPD)", "experimental": "(§1) X-ray diffraction was performed on X-Ray powder diffractometer Bruker D8 Advance; CuK_radiation (λ=1.5418 Å); Lynx eye detector; laboratory temperature 22-25° C.; PMMA specimen holder ring. Prior to analysis, the samples were gently ground by means of mortar and pestle in order to obtain a fine powder. The ground sample was adjusted into a cavity of the sample holder and the surface of the sample was smoothed by means of a cover glass.\n(§2) • Scan range: 2-40 degrees 2-theta; • Scan mode: continuous; • Step size: 0.05 degrees; • Time per step: 0.5 s; • Sample spin: 30 rpm; • Sample holder: PMMA specimen holder ring with silicon low background holder.\nSamples of Lotilaner forms were subjected to strong grinding, and to solvent drop grinding in water, ethanol or isopropanol. Grinding was carried out on the samples alone, or in the presence of ethanol, water or isopropanol. In these experiments, about 20 mg of the sample is placed in a mortar and ground with a pestle for 2 minutes. The solvent, when used, as added to the crystalline material before grinding, in a volume of 10 microlitres. XRPD analysis performed on each of the samples after the grinding experiment, confirmed no change in the starting material (Table 3): […]"}, "[2]": {"experiment": "Storage stability at different relative humidities (XRPD)", "settings": "for at least 7 days; conclusion from Table 1", "experimental": "(§3) Prior to analysis, the samples were gently ground by means of mortar and pestle in order to obtain a fine powder. The ground sample was adjusted into a cavity of the sample holder and the surface of the sample was smoothed by means of a cover glass.\nas §2\nSamples of Lotilaner forms were subjected to conditions of different relative humidities at ambient temperature. XRPD analysis was performed on the samples after 7 days."}, "[3]": {"experiment": "Storage stability at different temperatures and/or relative humidities (XRPD)", "experimental": "as §3, §2\nSamples of Lotilaner forms were subjected to conditions of different temperatures and/or relative humidities. XRPD analysis was performed on the samples after 1, 3 or 6 months."}, "[4]": {"experiment": "Thermal stability (heating, XRPD)", "experimental": "as §1, §2\nSamples of Lotilaner forms were subjected to heating up to 100° C. for 30 minutes. XRPD analysis of the sample confirmed no change in the starting material (Table 4): […]"}, "[5]": {"experiment": "Stability to compression (XRPD)", "experimental": "as §3, §2\nSamples of Lotilaner forms were subjected to pressures of 2 tons for one minute. XRPD analysis was performed on the samples after 1 minute."}}, "data": [{"smiles": "Cc1cc(C2=NO[C@@](c3cc(Cl)c(Cl)c(Cl)c3)(C(F)(F)F)C2)sc1C(=O)NCC(=O)NCC(F)(F)F", "note": "[Form LT1 Lotilaner, 3-Methyl-N-[2-oxo-2-(2,2,2-trifluoroethylamino)ethyl]-5-[(5S)-5-(3,4,5-trichlorophenyl)-5-(trifluoromethyl)-4H-1,2-oxazol-3-yl]thiophene-2-carboxamide]", "values": [{"measurement": "XRPD analysis after strong grinding", "setting": "[1]; about 20 mg ground in mortar with pestle for 2 minutes, no solvent", "result": "No change"}, {"measurement": "Resistance to polymorphic changes on grinding", "setting": "[1]; conclusion from Table 3", "result": "resistant to polymorphic changes"}, {"measurement": "XRPD analysis after solvent-drop grinding (ethanol)", "setting": "[1]; ground 2 minutes, 10 microlitres ethanol", "result": "No change"}, {"measurement": "XRPD analysis after solvent-drop grinding (isopropanol)", "setting": "[1]; ground 2 minutes, 10 microlitres isopropanol", "result": "No change"}, {"measurement": "XRPD analysis after solvent-drop grinding (water)", "setting": "[1]; ground 2 minutes, 10 microlitres water", "result": "No change"}, {"measurement": "Stability after exposure to high and low relative humidity", "setting": "[2]", "result": "stable"}, {"measurement": "XRPD analysis after storage, 2-8° C.", "setting": "[3]; 6 months (6 m)", "result": "No change"}, {"measurement": "XRPD analysis after storage, 25° C., 60% RH", "setting": "[3]; 6 months (6 m)", "result": "No change"}, {"measurement": "XRPD analysis after storage, 40° C., 75% RH", "setting": "[3]; 6 months (6 m)", "result": "No change"}, {"measurement": "Storage stability", "setting": "[3]; conclusion from Table 2", "result": "good storage stability"}, {"measurement": "XRPD analysis after heating 100° C., 30 minutes", "setting": "[4]", "result": "No change"}, {"measurement": "XRPD analysis results, pressure (2 tons)", "setting": "[5]; 2 tons for one minute", "result": "No change"}, {"measurement": "Stability under high pressure conditions", "setting": "[5]; conclusion from Table 5", "result": "stable"}]}, {"smiles": "Cc1cc(C2=NO[C@@](c3cc(Cl)c(Cl)c(Cl)c3)(C(F)(F)F)C2)sc1C(=O)NCC(=O)NCC(F)(F)F", "note": "[Form LT4 Lotilaner, 3-Methyl-N-[2-oxo-2-(2,2,2-trifluoroethylamino)ethyl]-5-[(5S)-5-(3,4,5-trichlorophenyl)-5-(trifluoromethyl)-4H-1,2-oxazol-3-yl]thiophene-2-carboxamide]", "values": [{"measurement": "XRPD analysis after storage, 2-8° C.", "setting": "[3]; 3 months (3 m)", "result": "No change"}, {"measurement": "XRPD analysis after storage, 25° C., 60% RH", "setting": "[3]; 3 months (3 m)", "result": "No change"}, {"measurement": "XRPD analysis after storage, 40° C., 75% RH", "setting": "[3]; 3 months (3 m)", "result": "No change"}]}, {"smiles": "Cc1cc(C2=NO[C@@](c3cc(Cl)c(Cl)c(Cl)c3)(C(F)(F)F)C2)sc1C(=O)NCC(=O)NCC(F)(F)F", "note": "[Form LT5 Lotilaner, 3-Methyl-N-[2-oxo-2-(2,2,2-trifluoroethylamino)ethyl]-5-[(5S)-5-(3,4,5-trichlorophenyl)-5-(trifluoromethyl)-4H-1,2-oxazol-3-yl]thiophene-2-carboxamide]", "values": [{"measurement": "XRPD analysis after storage, 2-8° C.", "setting": "[3]; 1 month (1 m)", "result": "No change"}, {"measurement": "XRPD analysis after storage, 25° C., 60% RH", "setting": "[3]; 1 month (1 m)", "result": "No change"}, {"measurement": "XRPD analysis after storage, 40° C., 75% RH", "setting": "[3]; 1 month (1 m)", "result": "No change"}]}]}
